Measurements published in patent publication US7687079B2, “Methods of treating ileus” (priority 2002, dated 2010).

Test system: IL-6 mRNA
Experiment: IL-6 mRNA expression in muscularis externae of intestinal grafts
Type: in vivo, rat
Description: To investigate the sequential analysis of cytokine mRNA expression in the mucosa and muscularis, RNase protection assay was performed with the Riboquant™ kit (Pharmingen) according to the protocol of the manufacturer. […] Quantification of radioactivity of mRNA bands was performed with NIH Image, normalized to GAPDH, and expressed as a ratio of cytokine /GAPDH (n=3-4).
The effects of inhalation of CO on transplant-induced pro-inflammatory and anti-inflammatory gene expression was assessed in muscularis extracts by RT-PCR. […] Equal aliquots (5 μg) of total RNA from each sample were quantified by spectrophotometry (wavelength […]) and aliquoted at a concentration of 40 ng/μl. Peak mRNA expression was quantified in duplicate by SYBR Green two-step, real-time RT-PCR. […] Real-time PCR data were plotted as the ΔRn, fluorescence signal versus the cycle number. […] Quantification of mRNA expression was normalized to GAPDH and calculated relative to control using the comparative CT method (Schmittgen et al., J. Biochem. Biophys. Methods 46(1-2):69-8 (2000)). […]

[C-]#[O+] [CO, carbon monoxide]
IL-6 mRNA (SITx + CO, Table 2): 22.3 ± 1.8 % GAPDH | reduction of mean relative IL-6 mRNA expression (SITx recipients treated with CO vs SITx, 4 hours after reperfusion, p=0.084): 40%
